We go through 1 compound from US20050163841A1, “Compositions and dosage forms for enhanced absorption of 3-amino-n-butyl-phosphinic acid” (priority 2003, published 2005).

Like-named read-outs stand apart in the source and are kept apart here.

For series [1] the following is noted: cited from earlier work; for dose-corrected AUC: read from FIG. 4 of Gleitner 1.
The nature of series [2]: Human pharmacokinetics of 3-aminopropyl-n-butyl-phosphinic acid (Gleitner 1). The series is classed as in vivo, Humans. The following applies: implied from urinary excretion after oral administration.
Series [3] concerns patients suffering from Mild Cognitive Impairment (MCI). Particulars: 600 mg tid; cited from earlier work.

For `CCCCP(=O)(O)CCCN` [3-aminopropyl-n-butyl-phosphinic acid], the “dose-corrected AUC” value is 40 μmol·h/(L·mmol) in series [1] (600 mg dose) and 20 μmol·h/(L·mmol) in series [1] (2100 mg dose). Further, the “reduction of drug systemic availability after food intake” value in series [1] (after food intake) is on record as 30%. In addition, the “cumulative urinary excretion rate” value in series [1] (within 24 hours of i.v. administration) is 99.5+/−6.4 % of the dose; in series [1] (within 24 hours of oral administration), 38+/−13 % of the dose. Moreover, the “absorption through the oral route” value in series [2] was 38%. Moreover, in series [3], the “cognition in patients with Mild Cognitive Impairment” value is “showed improvements in multiple cognitive domains”.
